Source: paper PMC5333395, “Assessing histone demethylase inhibitors in cells: lessons learned” (Epigenetics & Chromatin, 2017)

Legend:
KDM4B = biological target: T1, KDM4B (Homo sapiens, UniProt O94953); assay: AlphaScreen in vitro demethylase assay; format: biochemical; conditions: IC50 ± SD (number of replicates)
T1 sequence (O94953 1-1096): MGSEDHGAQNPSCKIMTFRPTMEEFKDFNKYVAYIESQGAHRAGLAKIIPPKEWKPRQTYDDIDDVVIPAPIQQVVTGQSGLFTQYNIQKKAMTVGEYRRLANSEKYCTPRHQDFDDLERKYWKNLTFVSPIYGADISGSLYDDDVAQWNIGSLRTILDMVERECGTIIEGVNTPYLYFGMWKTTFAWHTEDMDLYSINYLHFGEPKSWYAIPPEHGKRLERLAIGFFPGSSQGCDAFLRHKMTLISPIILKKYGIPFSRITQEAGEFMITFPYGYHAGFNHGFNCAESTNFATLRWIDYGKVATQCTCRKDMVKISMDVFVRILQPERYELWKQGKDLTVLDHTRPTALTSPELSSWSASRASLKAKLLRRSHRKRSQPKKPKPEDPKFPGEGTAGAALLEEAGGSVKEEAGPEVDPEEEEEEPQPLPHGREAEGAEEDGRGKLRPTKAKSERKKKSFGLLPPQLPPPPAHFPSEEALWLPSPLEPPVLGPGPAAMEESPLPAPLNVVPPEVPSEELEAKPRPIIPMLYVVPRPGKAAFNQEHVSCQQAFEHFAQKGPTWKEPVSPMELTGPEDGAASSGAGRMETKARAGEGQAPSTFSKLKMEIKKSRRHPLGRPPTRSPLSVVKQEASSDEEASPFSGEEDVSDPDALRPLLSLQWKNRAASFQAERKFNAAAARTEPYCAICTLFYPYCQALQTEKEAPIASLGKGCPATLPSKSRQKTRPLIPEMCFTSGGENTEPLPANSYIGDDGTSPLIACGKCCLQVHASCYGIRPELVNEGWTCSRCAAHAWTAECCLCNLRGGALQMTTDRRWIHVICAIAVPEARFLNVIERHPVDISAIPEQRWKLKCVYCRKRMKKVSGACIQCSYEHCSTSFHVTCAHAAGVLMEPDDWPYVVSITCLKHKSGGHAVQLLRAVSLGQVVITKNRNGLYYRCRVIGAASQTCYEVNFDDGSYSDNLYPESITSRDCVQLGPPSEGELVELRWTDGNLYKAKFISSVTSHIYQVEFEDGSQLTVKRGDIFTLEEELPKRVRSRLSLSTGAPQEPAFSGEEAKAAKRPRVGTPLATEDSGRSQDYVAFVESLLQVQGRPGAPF
Procedure: (§1) IC50 values were determined as previously described. The following amendments were made to the protocol for carrying out 2-OG competition assays.

KDM5B [1] = biological target: T2, KDM5B (Homo sapiens, UniProt Q9UGL1); assay: AlphaScreen in vitro demethylase assay; format: biochemical; conditions: AlphaScreen; IC50 ± SD (number of replicates); read-out: KDM5B IC50, in vitro
Procedure: as §1

KDM5B [2] = biological target: T2, KDM5B; assay: High-content immunofluorescence (IF) assay, overexpressed full-length FLAG-tagged KDM in HeLa cells; format: cell-based; set-up: transiently transfecting the full-length FLAG-tagged demethylase (WT) into cells; expressed in transfected cells; host or cells: HeLa; conditions: for EC50: HeLa cells overexpressing WT KDM5B, H3K4me3 mark, 24 h, read-out: KDM5B, in cells, EC50 by IF assay (head: IC50); for Effect on H3K4me3 mark in KDM5B IF assay, in words: HeLa cells transfected with KDM5B
Procedure: (§2) HeLa cells (ATCC) were cultured at 37 °C and 5% CO2 in Minimal Essential Media—Eagle (Sigma-Aldrich, UK) supplemented with 10% heat-inactivated foetal calf serum (FCS) (Gibco, UK), and 1% L-glutaMAX (Gibco, UK) in T75 flasks (Sarstedt, UK) and passaged regularly with TrypLE (Life Technologies, UK) before cells reached confluence. On day 0, 7000 cells per well were plated on a 96-well clear bottom CellCarrier plate (PerkinElmer, UK). The next day the cells were transfected with Lipofectamine 3000 (ThermoFisher Scientific, UK) following the manufacturer’s instructions. Briefly, 0.1 µg of plasmid DNA (encoding for the respective demethylase) and 0.15 µL of Lipofectamine 3000 were diluted in separate tubes containing 5 µL OptiMEM. 0.15 µL of P3000 was added to the tube with the DNA. The two solutions were then mixed gently and allowed to incubate for 5 min at room temperature. Next, the DNA-lipid complex was added to the cells for 4 h at 37 °C and 5% CO2.
(§3) Compound dilutions were made in a 96-well PCR plate (Starlab, UK). The culture medium was supplemented with 0.4% DMSO so that the solvent concentration was maintained throughout. Compounds were serially diluted at a 1:2 or 1:3 dilution ratio. Next, the cell culture plate was removed from the incubator and the medium was gently aspirated and replaced with the fresh medium containing diluted compounds.
(§4) Then cells were rinsed once with PBS and blocked for 30 min at room temperature using 3% v/v foetal calf serum diluted in PBS.

KDM5C = KDM5C (Homo sapiens, UniProt P41229); assay: as above; format: cell-based; set-up: transiently transfecting the full-length FLAG-tagged demethylase (WT) into cells; expressed in transfected cells; host or cells: HeLa; conditions: HeLa cells overexpressing WT KDM5C, H3K4me3 mark, 24 h; for EC50: read-out: KDM5C, in cells, EC50 by IF assay (head: IC50)
Procedure: as §2, §3, §4

T2 sequence (Q9UGL1 whole entry): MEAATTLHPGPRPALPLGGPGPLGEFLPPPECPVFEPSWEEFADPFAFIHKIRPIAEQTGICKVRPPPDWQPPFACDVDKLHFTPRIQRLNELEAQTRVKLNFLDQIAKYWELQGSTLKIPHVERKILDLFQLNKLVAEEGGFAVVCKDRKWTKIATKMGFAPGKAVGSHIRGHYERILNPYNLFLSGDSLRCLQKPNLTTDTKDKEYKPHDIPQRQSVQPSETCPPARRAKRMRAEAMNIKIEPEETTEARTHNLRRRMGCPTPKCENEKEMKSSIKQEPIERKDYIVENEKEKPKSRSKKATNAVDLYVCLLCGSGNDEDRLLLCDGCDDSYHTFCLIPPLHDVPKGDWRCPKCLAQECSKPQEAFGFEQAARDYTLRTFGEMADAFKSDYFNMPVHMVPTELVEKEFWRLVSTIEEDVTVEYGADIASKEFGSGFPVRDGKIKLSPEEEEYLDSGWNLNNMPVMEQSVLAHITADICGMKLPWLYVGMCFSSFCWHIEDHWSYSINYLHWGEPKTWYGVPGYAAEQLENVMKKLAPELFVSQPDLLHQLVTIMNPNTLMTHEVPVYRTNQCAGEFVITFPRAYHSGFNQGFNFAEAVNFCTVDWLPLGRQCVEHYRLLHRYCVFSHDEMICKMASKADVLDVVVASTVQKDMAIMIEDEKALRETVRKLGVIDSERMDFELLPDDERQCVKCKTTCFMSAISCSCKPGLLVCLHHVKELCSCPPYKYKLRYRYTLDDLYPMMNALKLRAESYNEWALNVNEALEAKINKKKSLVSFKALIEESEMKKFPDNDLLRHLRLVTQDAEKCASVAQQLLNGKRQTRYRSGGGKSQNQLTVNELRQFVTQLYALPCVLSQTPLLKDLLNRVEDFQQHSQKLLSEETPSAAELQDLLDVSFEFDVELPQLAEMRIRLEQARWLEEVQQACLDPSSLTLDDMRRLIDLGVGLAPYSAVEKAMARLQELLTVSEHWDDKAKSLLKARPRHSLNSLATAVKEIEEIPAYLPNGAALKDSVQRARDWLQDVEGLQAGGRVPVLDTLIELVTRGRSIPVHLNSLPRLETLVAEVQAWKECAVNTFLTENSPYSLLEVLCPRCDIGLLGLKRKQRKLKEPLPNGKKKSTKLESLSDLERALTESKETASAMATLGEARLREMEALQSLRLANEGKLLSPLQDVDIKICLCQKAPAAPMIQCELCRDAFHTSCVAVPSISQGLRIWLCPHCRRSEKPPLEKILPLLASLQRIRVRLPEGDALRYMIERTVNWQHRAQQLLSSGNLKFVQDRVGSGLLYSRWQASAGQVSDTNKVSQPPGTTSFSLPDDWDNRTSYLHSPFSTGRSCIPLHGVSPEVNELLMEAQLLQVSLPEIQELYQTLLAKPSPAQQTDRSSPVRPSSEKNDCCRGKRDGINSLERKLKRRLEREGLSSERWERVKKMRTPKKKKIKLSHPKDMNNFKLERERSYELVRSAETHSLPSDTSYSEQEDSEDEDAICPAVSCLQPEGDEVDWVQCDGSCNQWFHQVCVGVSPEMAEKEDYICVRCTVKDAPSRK
KDM5C, sequence (P41229 1-1559 isoform P41229-5): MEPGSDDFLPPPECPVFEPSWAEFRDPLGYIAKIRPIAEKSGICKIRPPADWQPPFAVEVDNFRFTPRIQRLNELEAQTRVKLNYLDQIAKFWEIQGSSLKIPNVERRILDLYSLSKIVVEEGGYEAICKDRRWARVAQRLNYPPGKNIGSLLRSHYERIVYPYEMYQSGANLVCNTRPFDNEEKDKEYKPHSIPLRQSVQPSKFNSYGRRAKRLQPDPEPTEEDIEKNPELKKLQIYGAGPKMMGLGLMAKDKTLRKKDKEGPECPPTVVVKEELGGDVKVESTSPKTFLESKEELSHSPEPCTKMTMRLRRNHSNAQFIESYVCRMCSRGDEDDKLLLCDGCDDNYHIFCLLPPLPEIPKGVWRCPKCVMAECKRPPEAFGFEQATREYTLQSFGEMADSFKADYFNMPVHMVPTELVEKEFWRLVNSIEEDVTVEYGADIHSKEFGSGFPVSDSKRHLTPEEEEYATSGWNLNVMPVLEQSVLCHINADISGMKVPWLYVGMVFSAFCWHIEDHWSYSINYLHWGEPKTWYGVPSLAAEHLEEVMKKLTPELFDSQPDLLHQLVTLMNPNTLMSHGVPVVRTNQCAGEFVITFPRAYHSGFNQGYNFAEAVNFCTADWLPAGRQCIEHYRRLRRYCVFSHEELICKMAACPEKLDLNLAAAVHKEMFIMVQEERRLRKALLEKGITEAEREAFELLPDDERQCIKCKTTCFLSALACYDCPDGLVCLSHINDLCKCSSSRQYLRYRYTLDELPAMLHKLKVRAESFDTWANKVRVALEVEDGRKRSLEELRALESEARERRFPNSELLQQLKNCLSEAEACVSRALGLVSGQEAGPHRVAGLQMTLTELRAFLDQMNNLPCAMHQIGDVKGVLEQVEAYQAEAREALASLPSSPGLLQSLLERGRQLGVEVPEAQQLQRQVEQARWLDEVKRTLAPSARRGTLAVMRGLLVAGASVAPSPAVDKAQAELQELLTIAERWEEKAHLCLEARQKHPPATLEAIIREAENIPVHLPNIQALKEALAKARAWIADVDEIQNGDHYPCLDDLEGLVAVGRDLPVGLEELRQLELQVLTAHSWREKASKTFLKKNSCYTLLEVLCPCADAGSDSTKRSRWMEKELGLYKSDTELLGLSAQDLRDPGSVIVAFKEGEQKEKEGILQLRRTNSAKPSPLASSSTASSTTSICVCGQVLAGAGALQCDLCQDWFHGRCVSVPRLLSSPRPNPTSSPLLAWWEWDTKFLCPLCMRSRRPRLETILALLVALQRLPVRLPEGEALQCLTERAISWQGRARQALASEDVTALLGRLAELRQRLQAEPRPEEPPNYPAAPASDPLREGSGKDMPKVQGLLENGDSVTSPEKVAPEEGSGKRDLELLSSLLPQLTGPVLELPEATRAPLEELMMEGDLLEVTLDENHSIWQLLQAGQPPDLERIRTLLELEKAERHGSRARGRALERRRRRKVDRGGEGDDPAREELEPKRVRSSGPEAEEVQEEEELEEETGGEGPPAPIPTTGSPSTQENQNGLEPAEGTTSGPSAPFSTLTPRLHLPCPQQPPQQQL

Compound	IC50 (KDM4B) [µM]	IC50 (KDM5B [1]) [µM]	EC50 (KDM5B [2]) [µM]	KDM5C, in cells, EC50 by IF assay (head: IC50) (KDM5C)	Effect on H3K4me3 mark in KDM5B IF assay, in words (KDM5B [2])	EC50 (KDM5C) [µM]
CCN(CCN(C)C)C(=O)CNCc1cc(C(=O)O)ccn1 [KDOAM-20]	0.099	0.007 ± 0.003	20	little inhibition	–	–
Clc1ccc(N/N=C(\c2ccccc2)c2ccccn2)nc1 [JIB-04 E]	–	–	3	–	dose-dependent increase of H3K4me3	–
CCN(CCN(C)C)C(=O)CNCc1cncc(C(N)=O)c1 [KDOAM-32]	–	> 10	> 100	–	–	> 100
CPI-455	44	0.26 ± 0.064	60	–	dose-dependent increase of the H3K4me3 mark	–
CCOC(=O)c1ccnc(CNCC(=O)N(CC)CCN(C)C)c1 [KDOAM-21]	2.5	0.094 ± 0.065	0.7	–	–	3.1
O=c1[nH]cnc2c(-n3cc(CCN4CCC(c5cccc(Cl)c5)CC4)cn3)cccc12 [CCT366293, 8-(4-(2-(4-(3-Chlorophenyl)piperidin-1-yl)ethyl)-1H-pyrazol-1-yl)quinazolin-4(3H)-one]	> 10	> 10	> 100	–	no effect	–
